The source of these data is a melting point compilation (Tetko et al.; mined from patent text by program, amines drawn as free bases though some values may be those of a salt).

For orientation: melting point means the temperature of the solid-liquid transition.

Each structure is given as a SMILES string.

Regarding `CCCCc1ncc(C=C2C(=O)Nc3ccccc32)n1Cc1ccc(C(=O)OC)cc1Cl`, the melting point was in the range of 219 to 220 °C.
Compound `CCCCCCCCCCCCCCCCCCOc1cc(NC(C)=O)cc([N+](=O)[O-])c1` showed a melting point of 103 to 107 °C.
`CC1(CO)OCC2(CO1)COC(C)(CO)OC2` (centres undefined) returned a melting point of 127 to 128 °C.
In turn, `O=[N+]([O-])c1ccc(-c2cc[nH]n2)cc1` came in with a melting point of 196 to 197 °C.
Next, `CN(C)CCNC(=O)CCn1c(-c2ccc(Cl)cc2)nc2cccnc21`: 142 to 143 °C; `N#Cc1c(O)nsc1S(=O)(=O)Cc1ccccc1`: 181 to 183 °C; `CSc1ccc(C(C)C)c(NC(=O)CN2CCN(CCSc3nc4ccccc4o3)CC2)c1C(C)C`: 148 to 150 °C.
To `Cc1nc[nH]c1CSCCNC1=Nc2ccccc2C(=O)C1` belongs 121 to 124 °C; to `Nc1ncnc2c1c(-c1cc(O)cc(F)c1)nn2Cc1oc2ccccc2c(=O)c1-c1ccccc1`, 260 to 262 °C; to `COc1nc(C)cnc1NS(=O)(=O)c1cccnc1-c1ccc(NC(C)=O)cc1`, 208 to 209 °C.
Compound `N#CSc1nc(Cl)ncc1Br` gave a melting point of 166 to 170 °C.
Next, `COc1ccc(C(=O)OC(=O)NC(CO)Cc2ccc(O)cc2)cc1OC` (centres undefined): 152 to 155 °C; `CC(C)NC[C@H](O)COc1ccc(Cc2nc(Br)c[nH]2)cc1`: 125 to 127 °C; `O=C(O)Cc1ccc(-c2onc3ccccc23)cc1`: 179 to 181 °C.
Turning to `CCCCC1(COC(=O)C(C)(C)C)C(=O)N(c2ccccc2)N(c2ccccc2)C1=O`, the melting point was 116 to 117 °C.
`CN(Cc1cc2c(-c3ccccc3)c(CC(=O)Nc3ccc(Cl)cc3C(F)(F)F)c(=O)oc2cc1Cl)C(=O)c1ccccc1` displayed a melting point of 215 to 216 °C.
For `CN1CCN=C1CC(c1ccccc1)c1ccccc1`, the melting point is 108 to 110 °C.
For the compound `O=CN1CCn2nccc21`, the melting point was in the range of 78 to 80 °C.
To `CC12CCC(=O)C=C1CCN(Cc1ccccc1)C2` (centres undefined) belongs 98 °C; to `OCC1(Nc2nc(-c3ccc(Br)cc3)cs2)CC1`, 129 to 131 °C.
`Cc1c(C(=O)Nc2ccc(-c3ccc(S(=O)(=O)N(C)C(C(=O)O)C(C)C)cc3)cc2)oc2cccc(C(O)CO)c12` (centres undefined) displayed a melting point of 222 to 225 °C.
On to `COCC(=O)OC(n1cc(C#N)c(-c2cccc(Cl)c2Cl)c1)C(Cl)(Cl)Cl` (centres undefined), for which the melting point fell in the range of 88 to 90 °C.
Next, `Cc1cccc2c1Sc1c(C)cccc1N2`: 140 to 141 °C.
To `Cc1ccc2c(O)cc(=O)oc2c1` belongs 179 to 182 °C.
`CCOC(=O)c1cn(Cc2ccc(Oc3ccccc3)cc2)nc1OCc1ccc(OCc2nc(-c3ccccc3)oc2C)c(OC)c1`: the melting point is 127 to 128 °C.
Turning to `OC1CSC(Oc2ccc(-c3ccnc(F)c3)nc2)C(O)C1O` (centres undefined), the melting point worked out at 219 °C.
Next, `CN1c2ccccc2C(c2ccccc2F)=NCC1CNC(=O)C(Cc1c[nH]c2ccccc12)NC(=O)OC(C)(C)C` (centres undefined): 124 °C.
In the case of `[N-]=[N+]=C1c2cc(F)ccc2-c2ccc(F)cc21`, the melting point was in the range of 148 to 150 °C.
On to `CCOC(=O)c1ccc(C(=O)CN2CCN(c3ccncc3)CC2)cc1`, for which the melting point was 147 to 149 °C.
Consider `CCn1cnc(C(N)=O)c1NC(=S)NC(=O)c1ccccc1`, for which the melting point fell in the range of 178 to 180 °C.
As to `CCOC(=O)C(Cc1ccc(O)cc1)C(=O)OCC`, the melting point was 45 °C.
To `CCc1cc(C(F)(C(F)(F)F)C(F)(F)F)cc(C)c1NC(=O)c1cccc(N=S=O)c1` belongs 100 to 108 °C.
`Cn1nnc(-c2ccc3c(c2)c(C2CCN(CCN4CCNC4=O)CC2)cn3-c2ccncc2)n1`: the melting point lay in the range of 204 to 206 °C.
Compound `O=C(N1CC(CCl)c2c1ccc1ccc(S(=O)(=O)N(Cc3ccccc3)Cc3ccccc3)cc21)C(F)(F)F` (centres undefined) came in with a melting point of 119 to 121 °C.
